From US8598339B2, “Withanolide isolated from Physalis longifolia and analogs and methods of use thereof” (University of Kansas, priority 2011, dated 2013) come the findings set out here.

One series concerns Ames test strain TA98. Nature of the series: Ames test, TA98. (In general: The Ames test detects mutagens through reverse mutation in bacteria.)
The test system of a further series is Ames test strain TA100. Put plainly: Ames test, TA100.
The next series deals with Ames test strain TA1535. Put plainly: Ames test, TA1535.
The test system of another series is HS766T. Put plainly: Pancreatic cancer cell viability, HS766T. In kind it is cell-based. As to conditions: read-out: IC50. As for the experimental part: (§1) The activity of the withanolides of this invention were tested in pancreatic cancer cells. […] Moreover, IC50 values were determined for these compounds (Table 14).
In another series the test system is Mia PaCa-2. Nature of the series: Pancreatic cancer cell viability, Mia PaCa-2. In kind it is cell-based. As to conditions: Homo sapiens, MIA PaCa2, read-out: IC50. As for the experimental part:
as §1

The test system of series [1] is heat shock factor (HSF) / HSE-luciferase in Hs766T cells. Nature of the series: HSE-luciferase reporter, Hs766T. It counts as cell-based. Also on record: dose or concentration left out as unconfirmed. To be noted: heat shock 42° C. 30 minutes; recovery 8 hours. How it is done:
To monitor the activation of heat shock factor (HSF) and heat shock-mediated signal transduction pathways, Hs766T cells were transfected with a HSE-luciferase construct, then treated with 3 mM of the selected withanolides for 8 hours. The cells were heat shocked at 42° C. for 30 minutes and allowed to recover at 37° C. for 8 hours. Cells were lysed and luciferase activity was measured on a plate reader.

The next series has as its system melanoma cells B16F10. Nature of the series: MTS cell viability assay, B16F10. In kind it is cell-based. As to conditions: Mus musculus, B16-F10, Table 5. As for the experimental part: (§2) Human carcinoid cells, NCI-H727 (ATCC, Manassas, Va.), were cultured under standard conditions. Squamous cell carcinoma of head and neck cells, MDA1986 (Myers, et al. (2002) Clin. Cancer Res. 8:293) and JMAR (Swan, et al. (2003) Oral Oncol. 39:648-55); and melanoma cells lines B16F10 (ATCC, Manassas, Va.) and SKMEL28 (CLS, Eppelheim, Germany) were cultured in DMEM medium supplemented with 10% heat-inactivated fetal bovine serum (Sigma-Aldrich, St. Louis, Mo.), 1×MEM-essential amino acid, 1×MEM vitamin, and penicillin/streptomycin (Sigma-Aldrich, St. Louis, Mo.) in a humid environment of 5% CO2 at 37° C. Activity of withanolides against DRO81-1 and TT medullary thyroid cancer cells was also determined.
(§3) Cells were cultured in 96 well plates at a concentration of 1-2×10^4 cells/mL. Cell viability was assessed with the nonradioactive cell proliferation MTS assay using Cell Titer 96AQUEOUS One Solution Reagent (PROMEGA, Madison, Wis.), according to the manufacturer's instruction. After a 72-hour treatment, 20 μL of Cell Titer 96AQUEOUS One Solution Reagent were added to each well and incubated for 3 hours at 37° C. 5% CO2, and formazan absorbance was measured at 490 nm.
On the technique in general: Tetrazolium dyes change colour on reduction, which living cells bring about.

The test system of series [2] is human melanoma SKMEL28 cells. Put plainly: MTS cell viability assay, SKMEL28. It counts as cell-based. To be noted: Homo sapiens, SK-MEL-28, Table 5. As for the experimental part:
as §2, §3
A cell viability MTS assay was carried out to determine the anti-cancer effect of the withanolides on human melanoma SKMEL28 cells. Cells were treated for 72 hours and cell viability was determined according to the manufacturer's instruction.

In series [3] the test system is squamous cell carcinoma of head and neck cells MDA1986. Nature of the series: MTS cell viability assay, MDA1986. It counts as cell-based. As to conditions: Table 5. As for the experimental part:
as §2, §3

Series [4] has as its system squamous cell carcinoma of head and neck cells JMAR. Nature of the series: MTS cell viability assay, JMAR. To be noted: Table 5. In kind it is cell-based. As for the experimental part:
as §2, §3

The subject of a further series is MRC-5. Nature of the series: MTS cell viability assay, MRC-5. In kind it is cell-based. As to conditions: Homo sapiens, MRC5, Table 5.
The subject of series [5] is RET, mTOR, 4E-BP1, P70S6 kinase, akt, pERK in medullary thyroid cancer cells. Nature of the series: Mechanistic pathway protein levels in medullary thyroid cancer cells. In kind it is cell-based. To be noted: for pERK / total and phosphorylated protein levels of RET, mTOR, 4E-BP1, P70S6 kinase: 24 hours, 0.25, 0.5, 1 or 3 μM. As for the experimental part: Additional analysis of X005, X032 and X033 was carried out in medullary thyroid cancer cells. […] Therefore, this analysis indicates the importance of this double bond in the A-ring to anti-cancer activity.

Regarding `CN(N=O)C(=O)N[C@H]1C(O)O[C@H](CO)[C@@H](O)[C@@H]1O` (mixture of isomers) [Streptoxotocin, reference compound], the “Positive Significance (− to +++)” value is “−” with Ames test strain TA98 (2.5E−06 M, TA98 +S9); “−” in the series on Ames test strain TA98 (2.5E−06 M, TA98 −S9); “+++ (Very strong positive, if p < 0.001, denoted as “+++”.)” with Ames test strain TA100 (2.5E−06 M, TA100 +S9); “+++ (Very strong positive, if p < 0.001, denoted as “+++”.)” in the series with Ames test strain TA100 (2.5E−06 M, TA100 −S9); “++ (Strong positive, if p < 0.01, denoted as “++”.)” with Ames test strain TA1535 (2.5E−06 M, TA1535 +S9); “+++ (Very strong positive, if p < 0.001, denoted as “+++”.)” in the series on Ames test strain TA1535 (2.5E−06 M, TA1535 −S9).

Regarding `Nc1cccc2cc3ccccc3cc12` [Aminoanthracene, reference compound], the “Positive Significance (− to +++)” value is given as “+++ (Very strong positive, if p < 0.001, denoted as “+++”.)” in the series on Ames test strain TA98 (1.0E−05 M, TA98 +S9); “−” in the series with Ames test strain TA98 (1.0E−05 M, TA98 −S9); “+++ (Very strong positive, if p < 0.001, denoted as “+++”.)” with Ames test strain TA100 (1.0E−05 M, TA100 +S9); “−” in the series with Ames test strain TA100 (1.0E−05 M, TA100 −S9); “+++ (Very strong positive, if p < 0.001, denoted as “+++”.)” in the series with Ames test strain TA1535 (1.0E−05 M, TA1535 +S9); “−” in the series on Ames test strain TA1535 (1.0E−05 M, TA1535 −S9).

Usually IC50 stands for the concentration at which inhibition is half-maximal. For the molecule `CC1=C(C)C(=O)O[C@@H]([C@@H](C)[C@H]2CC[C@H]3[C@@H]4C[C@H]5O[C@]56[C@@H](O)C=CC(=O)[C@]6(CO)[C@H]4CC[C@]23C)C1` (stereo in doubt) [Compound X030], the IC50 with HS766T and in the series with Mia PaCa-2 was 800 nM each time. For the same molecule, the “heat shock-induced increase in luciferase activity” value in series [1] is given as “substantially reduced”.

Turning to `CC(=O)OC[C@]12C(=O)C=C[C@H](OC(C)=O)[C@]13O[C@@H]3C[C@H]1[C@@H]3CC[C@H]([C@H](C)[C@H]4CC(C)=C(C)C(=O)O4)[C@@]3(C)CC[C@@H]12` [Compound X033], the IC50 is 130 nM in the series on melanoma cells B16F10; 270 nM in series [2]; 110 nM in series [3]; 240 nM in series [4]; 510 nM in the series on MRC-5. Further, the pERK result in [5] is “increased at higher concentrations”. Further, the “total and phosphorylated protein levels of RET, mTOR, 4E-BP1, P70S6 kinase” value in series [5] was “dose-dependent down-regulation”. Besides, the “potency in pathway analysis relative to X001” value in series [5] (medullary thyroid cancer cells) is “more potent than X001”.

As for `CC(=O)O[C@H]1C=CC(=O)[C@]2(CO)[C@H]3CC[C@]4(C)[C@@H]([C@H](C)[C@H]5CC(C)=C(C)C(=O)O5)CC[C@H]4[C@@H]3C[C@H]3O[C@]132` [Compound X032], the IC50 with melanoma cells B16F10 is 190 nM; in [2], 640 nM; in series [3], 490 nM; in [4], 120 nM; in the series on MRC-5, 160 nM. For the same molecule, the pERK result in series [5] is on record as “increased at higher concentrations”. In addition, the “total and phosphorylated protein levels of RET, mTOR, 4E-BP1, P70S6 kinase” value in series [5] is recorded as “dose-dependent down-regulation”. For the same molecule, the “potency in pathway analysis relative to X001” value in [5] (medullary thyroid cancer cells) was “more potent than X001”.

Take `CC1=C(CO)C(=O)O[C@@H]([C@@H](C)[C@H]2CC[C@H]3[C@@H]4C[C@H]5O[C@]56[C@@H](O)[C@@H](OS(=O)(=O)O)CC(=O)[C@]6(CO)[C@H]4CC[C@]23C)C1` [Compound X017]: the half-inhibitory concentration (IC50) in the series on melanoma cells B16F10 was found to be 1330 nM; in series [2], 4800 nM; in series [3] it was 2020 nM; in series [4], 2250 nM; in the series on MRC-5, 3330 nM; in the series with HS766T it was 1800 nM. In addition, the IC50 with Mia PaCa-2 was determined as 1400 nM.

Consider `CO[C@H]1CC(=O)[C@]2(CO)[C@H]3CC[C@]4(C)[C@@H]([C@H](C)[C@H]5CC(C)=C(CO)C(=O)O5)CC[C@H]4[C@@H]3C[C@H]3O[C@]32[C@H]1O` [Compound X005], for which the IC50 in the series with melanoma cells B16F10 was 3210 nM; in series [2], 9270 nM; in [3], over 25000 nM; in series [4], 4690 nM; in the series on MRC-5, 6500 nM. Also, the “RET, mTOR, 4E-BP1, p70S6 kinase and akt levels” value in series [5] (medullary thyroid cancer cells) is given as “dose-dependent increase”.

For the molecule `CC1=C(C)C(=O)O[C@@H]([C@@H](C)[C@H]2CC[C@H]3[C@@H]4C[C@H]5O[C@]56[C@@H](O)C=CC(=O)[C@]6(CO)[C@H]4CC[C@]23C)C1` [Compound X030B], the IC50 in the series on melanoma cells B16F10 was found to be 200 nM; in [2], 3910 nM; in series [3], 1300 nM; in series [4], 170 nM; in the series on MRC-5, 400 nM.

As to `O=c1c(O)c(-c2ccc(O)c(O)c2)oc2cc(O)cc(O)c12` [Quercetin, reference compound], the “Positive Significance (− to +++)” value in the series on Ames test strain TA98 (3.0E−05 M, TA98 +S9) is “+++ (Very strong positive, if p < 0.001, denoted as “+++”.)”; in the series on Ames test strain TA98 (3.0E−05 M, TA98 −S9) it was “+++ (Very strong positive, if p < 0.001, denoted as “+++”.)”; in the series on Ames test strain TA100 (3.0E−05 M, TA100 +S9), “−”; with Ames test strain TA100 (3.0E−05 M, TA100 −S9), “−”; in the series on Ames test strain TA1535 (3.0E−05 M, TA1535 +S9), “−”; in the series on Ames test strain TA1535 (3.0E−05 M, TA1535 −S9), “−”.

Turning to `CC1=C(COC2OC(CO)C(O)C(O)C2O)C[C@H]([C@@H](C)[C@H]2CC[C@H]3[C@@H]4CC=C5C[C@@H](O)C[C@H](O)[C@]5(CO)[C@H]4CC[C@]23C)OC1=O` (some centres unmarked) [Compound X013], the IC50 (in the series with melanoma cells B16F10; in [2]; in [3]; in [4]; in the series on MRC-5) was over 25000 nM in each case.

With `CC1=C(COC2OC(CO)C(O)C(O)C2O)C[C@H]([C@@H](C)[C@H]2CC[C@H]3[C@@H]4CC(=O)C5=C(CC[C@@H](O)C5)[C@H]4CC[C@]23C)OC1=O` (some centres unmarked) [Compound X014], the half-maximal inhibitory concentration (IC50) (in the series on melanoma cells B16F10; in series [2]; in [3]; in series [4]; in the series on MRC-5) was over 25000 nM each time.

Consider `CC1=C(CO)C(=O)O[C@@H]([C@@H](C)[C@H]2CC[C@H]3[C@@H]4C[C@H]5O[C@]56[C@@H](O)C=CC(=O)[C@]6(C)[C@H]4[C@@H](O)C[C@]23C)C1` [Compound X004], for which the IC50 in the series on melanoma cells B16F10 came out at 490 nM; in series [2], 2990 nM; in series [3], 2640 nM; in series [4], 770 nM; in the series on MRC-5, 3600 nM; in the series with HS766T, 1600 nM. In addition, in the series on Mia PaCa-2, the IC50 worked out at 1300 nM.

`CO[C@H]1CC(=O)[C@]2(C)[C@@H]3[C@@H](C[C@H]4O[C@]42[C@H]1O)[C@@H]1CC[C@H]([C@H](C)[C@H]2CC(C)=C(CO)C(=O)O2)[C@@]1(C)C[C@@H]3O` [Compound X007]: the half-maximal inhibitory concentration (IC50) was found to be 5570 nM in the series on melanoma cells B16F10; 11600 nM in series [2]; 8340 nM in series [3]; 12000 nM in series [4]; 7330 nM with MRC-5.
